In paper PMC3304000 (Bioorganic & medicinal chemistry, 2012):
In brackets after ≈: the same amount, converted by molar mass. Several values for one entry are separate records, joined by “and”; a condition that tells them apart may be missing. Equal entries are not always repeated.

Legend:
[1] = tested on: Drug sensitive Mtb clinical strain #1; experiment: MIC against clinical Mtb strain in 7H9/glucose/glycerol/BSA/0.05% Tween 80; format: cell-based; conditions: Mycobacterium tuberculosis
[2] = tested on: Drug sensitive Mtb clinical strain #2; experiment: as above; format: cell-based; conditions: Mycobacterium tuberculosis
[3] = Stability in simulated gastric fluid; conditions: after a 15-min incubation
[4] = In vitro stability in rat liver microsomes; conditions: after a 15-min incubation
[5] = tested on: Mtb H37Rv luxAB luminescence strain; experiment: microbe, parasite or virus in culture; format: cell-based; conditions: Mycobacterium tuberculosis, read-out: LORA MIC (mean ± SD)
[6] = tested on: twelve MDR- and XDR-Mtb strains; conditions: cited from earlier work

## O=C(OCc1ccccc1)c1coc(-c2ccccc2)n1 [Compound 2]
[1]
  MIC: 4.4 µM to 8.9 µM and 1.25 µg/mL to 2.5 µg/mL
[2]
  MIC: 2.2 to 4.4 µM (≈ 0.614 to 1.23 µg/mL)
[3]
  compound remaining in simulated gastric fluid: 0.6%
[4]
  compound remaining in rat liver microsomes: 11%

## O=C(OCc1ccccc1)c1csc(-c2ccccc2)n1 [Compound 5]
[1]
  MIC: 10 µg/mL (≈ 33.9 µM)

## Cc1ccn2c(C(=O)OCc3ccccc3)c(-c3ccccc3)nc2c1 [Compound 9, benzyl 7-methyl-2-phenylimidazo[1,2-a]pyridine-3-carboxylate]
[5]
  MIC: 22 µM (≈ 7.53 µg/mL)

## Cc1ccn2c(C(=O)OCc3ccccc3)c(C)nc2c1 [Compound 11, benzyl 2,7-dimethylimidazo[1,2-a]pyridine-3-carboxylate]
[1]
  MIC: < 0.01 µg/mL

## Cc1ccn2c(C(=O)NCc3ccccc3)c(C)nc2c1 [Compound 12, N-benzyl-2,7-dimethylimidazo[1,2-a]pyridine-3-carboxamide]
[6]
  MIC against a panel of twelve MDR- and XDR-Mtb strains: 0.07 to 2.3 µM
[3]
  compound remaining in simulated gastric fluid: 100%

## O=[N+]([O-])c1cn2c(n1)OC[C@@H](OCc1ccc(OC(F)(F)F)cc1)C2 [PA-824, reference compound]
[1]
  MIC: 0.45 µM to 0.86 µM and 0.16 µg/mL to 0.31 µg/mL
